Experimental data as given in publication PMC10454375, “Cell-Impermeable Inhibitors Confirm That Intracellular Human Transglutaminase 2 Is Responsible for the Transglutaminase-Associated Cancer Phenotype” (International Journal of Molecular Sciences, 2023).
Peptide text beside a SMILES is read from it. * marks the point of attachment. X1 = C=CC(=O)NCCCCC(NC(=O)OCc1ccccc1)C(=O)N1CCN(C(=O)C(CCC(=O)*)NC(=O)c2cccc3ccccc23)CC1

Assays:
Recombinant human TG2 = molecular target: T1, Recombinant human TG2 (Homo sapiens, UniProt P21980); assay: rhTG2 inhibition assay, continuous chromogenic substrate AL5, Kitz and Wilson conditions; format: biochemical; conditions: for kinact / Ki: * compounds fitted to double reciprocal model, 25 °C, pH 6.9, 100 µM AL5; for kinact/KI: * double reciprocal model, ** lowest concentrations of saturation plot fitted to a linear model; for Ki: irreversible inhibition
T1 construct: GST (with PSP protease site, plasmid pGST-PSP-rhTG2) (N, cleaved yes); made in house; host or cells: E. coli (BL21)
T1 sequence (P21980 1-687): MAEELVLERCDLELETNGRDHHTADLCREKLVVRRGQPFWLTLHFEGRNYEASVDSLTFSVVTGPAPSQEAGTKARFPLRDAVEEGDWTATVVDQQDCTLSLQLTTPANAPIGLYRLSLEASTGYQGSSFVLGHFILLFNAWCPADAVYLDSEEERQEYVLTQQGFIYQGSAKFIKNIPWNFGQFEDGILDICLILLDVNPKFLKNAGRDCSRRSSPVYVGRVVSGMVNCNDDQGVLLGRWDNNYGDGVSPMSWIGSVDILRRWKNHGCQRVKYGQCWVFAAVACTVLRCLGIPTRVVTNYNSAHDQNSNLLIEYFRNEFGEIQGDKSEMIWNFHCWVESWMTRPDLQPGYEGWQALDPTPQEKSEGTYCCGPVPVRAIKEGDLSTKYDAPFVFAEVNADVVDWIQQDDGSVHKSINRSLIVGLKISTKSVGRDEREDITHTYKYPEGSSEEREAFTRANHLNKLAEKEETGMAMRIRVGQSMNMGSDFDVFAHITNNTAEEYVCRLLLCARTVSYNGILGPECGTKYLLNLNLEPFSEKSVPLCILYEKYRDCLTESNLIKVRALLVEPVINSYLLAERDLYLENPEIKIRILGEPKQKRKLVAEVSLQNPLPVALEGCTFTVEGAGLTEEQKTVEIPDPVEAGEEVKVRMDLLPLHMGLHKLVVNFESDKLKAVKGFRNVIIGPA
Text: Relative to the original scaffold, we expected the potency of these novel chemical biology tools to decrease slightly, due to the additional bulk incorporated on the glutamate sidechain. Although we expected the sidechain moiety to be directed into bulk solvent, we were concerned that its mass and charge would disfavor the binding interaction. Therefore, we kinetically characterized these probes as rigorously as possible, in order to determine their relative affinity and reactivity. For most inhibitors we have made, including the parent inhibitor AA9 (Figure 1), we have been able to measure kinetic parameters under Kitz and Wilson conditions. This experimental approach is based on the use of a continuous activity assay and the measurement of first-order rate constants for the time-dependent inactivation of enzyme (see Figure 2A and Figures S1–S5 in Supplementary Materials). The dependence of these observed rate constants (kobs) on the inhibitor concentration divided by alpha ([I]/α) can then be fitted to a hyperbolic saturation model where the upper plateau represents the rate constant of inactivation (kinact), and the concentration providing half the rate constant of inactivation represents KI (Figure 2B). […] To compensate for this, the overall efficiency of the inhibitor (kinact/KI) can be derived from the slope of the linear region of the saturation plot (Figure 2C). To gauge the individual parameters, a double reciprocal fitting was also employed where KI can be calculated from the x-axis intercept and kinact can be calculated from the y-axis intercept (Figure 2D).
Recombinant human TG2 was expressed and purified using previously published protocols. The inhibition was monitored using a continuous chromogenic substrate AL5 [38] under Kitz and Wilson conditions. In brief, 125 µL of assay buffer composed of 111.11 mM MOPS, 15.56 CaCl2 pH 6.9 was added to a 1.5 mL Eppendorf tube to achieve final assay concentrations of 50 mM MOPS and […] CaCl2. To the tube was then added the respective concentration of inhibitor from an aqueous working stock (<5% DMSO final conditions). Various volumes of water were then added to ensure the final volumes were equal. The AL5 substrate was added to the Eppendorf tube as a 5 µL 5.56 mM solution in DMSO to obtain a final assay concentration of 100 µM. A 96-well polystyrene microplate then had 180 µL of the assay mixture added to it. The enzymatic reaction was finally initiated by addition of 20 µL 5 mU prediluted TG2 in assay buffer using a multichannel pipette. The reaction was monitored at 405 nm using a BioTek Synergy 4 plate reader for 20 min at 25 °C. A positive control with no inhibitor and a blank with no enzyme nor inhibitor were also included. The blank subtracted kinetic curves were then analyzed. The observed first-order rate constants of inactivation were gathered through a one-phase association model using the GraphPad software package. The rate constants were then fit to various models to elucidate the inhibition parameters. If saturation was achieved, they were fit to a saturation model versus the inhibitor concentration divided by alpha (where α=1+Substrate/Km ). A linear regression of the linear region of this saturation fitting was calculated to obtain a ratio of kinact/KI. A further double reciprocal model was used if saturation could not be observed due to the limitations in sensitivity of the assay or if solubility issues were present.

PAMPA test = format: in vitro ADME; conditions: compound not detected in receptor compartment, limit of detection reported
Text: The cell-impermeable inhibitors 17 and 18 were designed to violate virtually all of the rules for cellular permeability described by Lipinski and Veber. They were also empirically evaluated with respect to their pharmacokinetic properties, in particular to determine their cell permeability. In a PAMPA test, the −Log Pe values were very high (Table 2). […] Indeed, neither compound was even detected in the receptor compartment for the PAMPA, resulting in the lower limit of detection being reported as an approximate value.

P-gp = assay: MDCK cell permeability assay; format: in vitro ADME; conditions: dog, without Pgp inhibitor
[1] = MDCK cell permeability assay; format: in vitro ADME; conditions: dog, without Pgp inhibitor

Row | SMILES | kinact (Recombinant human TG2) [s⁻¹] | kinact/KI (Recombinant human TG2) [M⁻¹ s⁻¹] | Ki (Recombinant human TG2) [nM] | −Log Pe (PAMPA test) | efflux ratio (P-gp) | Papp A→B [1] [×10⁻⁶ cm/s] | Papp B→A [1] [×10⁻⁶ cm/s]
1 | C=CC(=O)NCCCCC(NC(=O)OCc1ccccc1)C(=O)N1CCN(C(=O)C(CCC(=O)NCCCCCC(=O)NC(CC(=O)O)C(=O)NC(CC(=O)O)C(=O)NC(CC(=O)O)C(=O)O)NC(=O)c2cccc3ccccc23)CC1 (centres unmarked) [Compound 17] | 0.0065 | 6820 | 1000 ± 300 | >9.02 | 1.39 | 0.31 | 0.42
2 | C=CC(=O)NCCCCC(NC(=O)OCc1ccccc1)C(=O)N1CCN(C(=O)C(CCC(=O)NCC(=O)NCC(=O)NCC(=O)NC(CC(=O)O)C(=O)NC(CC(=O)O)C(=O)NC(CC(=O)O)C(=O)O)NC(=O)c2cccc3ccccc23)CC1 (centres unmarked) [Compound 18] (X1-GGGDDD-OH; configuration not given here) | 0.0388 | 9380 | 4100 ± 2100 | >8.79 | 1.18 | 0.47 | 0.56
